Values belong to the molecule of their own block, whether it stands above or below them.
Tests used:
[1] = Approximate solubility in solvents at 25° C. and 50° C. by visual observation; type: physicochemical
Experimental: The maximum volume of each solvent added was 1 mL. Approximate solubility was determined by visual observation.
Maximum volume of each solvent added was 1 mL. Approximate solubility was determined by visual observation.

[2] = Bulk stability, accelerated storage for one week (HPLC, XRPD); type: physicochemical
Experimental: Bulk stability: Accelerated stability experiments were conducted at 25° C./92% RH and 40° C./75% RH in an open container, 60° C. in a tight container for one week.
Samples were characterized by XRPD and HPLC and inspected for color change.
Accelerated stability experiments were conducted at 25° C./92% RH in an open container, at 40° C./75% RH in an open container, and at 60° C. in a tight container for one week.

[3] = Solubility in buffers, water and simulated vaginal fluid at 37° C.; type: physicochemical
Experimental: About 4 mg of Compound I Pattern 1 was added into 2 mL of buffer solution.
(§1) Solubility was tested in five media, pH 3.0 citrate buffer, pH 4.5 acetate buffer, pH 6.8 phosphate buffer, water, simulated vaginal fluid (pH 4.2) at 37° C. for 0.5 h and 2 h.
The salt amount used is equivalent to 10 mg anhydrous free base. […] The obtained clear solutions were analyzed by pH meter for pH, and solubility was determined by observation.
as §1

[4] = Hygroscicity by Dynamic Vapor Sorption (DVS) at 25° C.; type: physicochemical
Experimental: Hygroscopicity was investigated by DVS at 25° C., using the following method: […]

[5] = Behavior under compression, grinding simulation and granulation simulation (XRPD); type: physicochemical
Experimental: About 10 mg of Compound I monofumarate Pattern 1 (Example 7) was compressed for 5 minutes at 10 MPa with a hydraulic press. XRPD characterization was performed to investigate the polymorphic behavior under compression.
About 10 mg of Compound I monofumarate Pattern 1 (Example 7) was ground manually with a mortar and pestle for 5 min. Form transformation and degree of crystallinity was evaluated by XRPD.
Water or ethanol was added drop wise to about 10 mg of Compound I monofumarate Pattern 1 (Example 7) until solids were wetted sufficiently. The samples were ground manually with a mortar and pestle for 3 minutes. Samples are dried under ambient condition for 10 min. Form transformation and degree of crystallinity were evaluated by XRPD.

[6] = Ex vivo permeation and penetration across porcine vaginal tissue (Franz diffusion cells, IVPT); type: in vitro ADME
Source text: FIG. 116 is an in vitro tissue permeation test in vaginal tissue comparing Compound II to ABI-1968. […] Bars B and C show the tissue penetration of a 0.1% Compound II gel in […]. […] This may be a contributing factor to the performance of ABI-1968 in clinical studies. […] This is described in Example 41.
Freshly harvested porcine vaginal tissue was procured from local slaughterhouse in an ice box. The vaginal tissue was cut open to expose the mucosal surface and tissue was cleaned by gentle flow of PBS pH 7.4. The porcine vaginal tissue was cut into circular portions (approximately 2 cm^2) with help of a […] punch.
The circular portion of tissue was sandwiched between two chambers of a Franz diffusion cell with an active diffusion area of 1 cm^2, and the mucosal layer was exposed to the donor chambers. The resistance across porcine vaginal tissue was measured using a wave form generator to ensure the integrity of the tissue segment used for the permeation study. Porcine vaginal tissue with resistance of ≥3 KΩ.cm^2 was used for study. The receiver chamber was filled with 8 ml of 5% solutol PBS 7.4 pH, which was stirred at 600 rpm with a 3 mm magnetic stir bar and the temperature was maintained at 37° C. with a circulating water bath.
The ˜200 mg of gel was filled into tared 1 mL syringe and gel was dispensed to donor chamber. The gel was spread on to mucosal surface with pre weighed applicator. After loading and spreading of the gel onto surface of mucosal surface, the weight of 1 mL syringe and applicator was noted to determine the exact amount of gel loaded into donor chamber.
Time course (2 h, 4 h and 8 h) porcine vaginal permeation studies were performed. After loading gel, 500 μL samples were withdrawn from the receiver compartment at different time intervals and each time an equal volume of fresh receiver media was used to replace withdrawn samples. The sample withdrawn at each time interval were stored immediately in −20° C. until analysis. After 2, 4 and 8 h, the formulation was removed from the donor chamber with help of syringe and cleaned with cotton swab. The tissue was removed and washed gently with wash solution (50% methanol in water) 5 times and alternatively cleaning with cotton swab.
An 8 mm punch of active diffusion area of washed porcine vaginal tissue was removed, weighed and transferred into a tube. This tube was immediately placed into dry ice for ˜15 min. After specified time, tissue was removed and placed in precooled dish. The tissue was minced into smaller pieces on a dish with a precooled surgical blade. The minced tissue was transferred to sample tubes and dish was rinsed with 1 ml of 5% solutol in PBS 7.4 pH and transferred to same tissue sample tube. These tubes were stored in −70° C. until analysis.
The samples stored at −20° C. was removed and thawed at room temperature for 30 min. The drug from receptor fluid was centrifuged at 13000 rpm for 5 min and to 200 μL of supernatant equal volume of extraction solvent was added. These samples were centrifuged at 13000 rpm for 5 min and supernatant was transferred into vials for analysis.
The minced tissue samples stored at −70° C. were removed and thawed at room temperature for ˜90 min. The samples were kept for shaking at room temperature for 4 h in BioShaker. After 4 h, samples were centrifuged at 13000 rpm for 5 min. To 100 μL of supernatant, 400 μL of extraction solvent was added and vortexed for 2 min. […]

[7] = 25° C., 92% RH, open container, one week
[8] = 40° C., 75% RH, open container, one week
[9] = 60° C., tight container, one week
[10] = Simulated vaginal fluid (pH adjusted with 0.2N NaOH)

SMILES: CCOC(=O)C(C)NP(=O)(COCCn1cnc2c(OC)nc(N)nc21)OCc1ccccc1.O=C(O)C=CC(=O)O (mixture of isomers) [Compound I Monofumarate Pattern 1]
Solubility ([1]; Acetone, 25° C.): 50 to 100 mg/mL
Solubility ([1]; Acetone, 50° C.): 125 to 167 mg/mL
Solubility ([1]; Acetonitrile (ACN), 25° C.): 20 to 25 mg/mL
Solubility ([1]; Acetonitrile (ACN), 50° C.): 20 to 33 mg/mL
Solubility ([1]; Dichloromethane (DCM), 25° C.): <2 mg/mL
Solubility ([1]; Dichloromethane (DCM), 50° C.): <10 mg/mL
Solubility ([1]; Ethanol (EtOH), 25° C.): >100 mg/mL
Solubility ([1]; Ethanol (EtOH), 50° C.): 250 to 500 mg/mL
Solubility ([1]; Ethyl acetate (EA), 25° C.): <2 mg/mL
Solubility ([1]; Ethyl acetate (EA), 50° C.): <10 mg/mL
Solubility ([1]; Heptanes, 25° C.): <2 mg/mL
Solubility ([1]; Heptanes, 50° C.): <10 mg/mL
Solubility ([1]; Isopropanol (IPA), 25° C.): 50 to 100 mg/mL
Solubility ([1]; Isopropanol (IPA), 50° C.): 71 to 84 mg/mL
Solubility ([1]; Isopropyl acetate (IPAc), 25° C.): <2 mg/mL
Solubility ([1]; Isopropyl acetate (IPAc), 50° C.): <10 mg/mL
Solubility ([1]; Methanol (MeOH), 25° C.): >100 mg/mL
Solubility ([1]; Methanol (MeOH), 50° C.): >500 mg/mL
Solubility ([1]; Methyl ethyl ketone (MEK), 25° C.): 20 to 25 mg/mL
Solubility ([1]; Methyl ethyl ketone (MEK), 50° C.): 22 to 25 mg/mL
Solubility ([1]; Methyl t-butyl ether (MTBE), 25° C.): <2 mg/mL
Solubility ([1]; Methyl t-butyl ether (MTBE), 50° C.): <10 mg/mL
Solubility ([1]; Tetrahydrofuran (THF), 25° C.): >100 mg/mL
Solubility ([1]; Tetrahydrofuran (THF), 50° C.): 250 to 500 mg/mL
Solubility ([1]; Toluene, 25° C.): <2 mg/mL
Solubility ([1]; Toluene, 50° C.): <10 mg/mL
Solubility ([1]; Water, 25° C.): 14 to 17 mg/mL
Solubility ([1]; Water, 50° C.): 22 to 25 mg/mL
XRPD ([2]; 25° C., 84% RH, open container, 2 days): No change
HPLC (chemical purity) [2, 7]: 98.2%
XRPD [2, 7]: No change
HPLC (chemical purity) [2, 8]: 95.6%
XRPD [2, 8]: No change
HPLC (chemical purity) [2, 9]: 95.5%
XRPD [2, 9]: No change
HPLC (chemical purity) ([2]; Initial): 98.6%
Solubility 0.5 hrs [3, 10]: >2 mg/mL
Solubility 2 hrs [3, 10]: >2 mg/mL
pH at 2 hrs [3, 10]: (5.39)
Solubility 0.5 hrs ([3]; Water): >2 mg/mL
Solubility 2 hrs ([3]; Water): >2 mg/mL
pH at 2 hrs ([3]; Water): (3.11)
Solubility 0.5 hrs ([3]; pH 3.0 100 mM citrate buffer): >2 mg/mL
Solubility 2 hrs ([3]; pH 3.0 100 mM citrate buffer): >2 mg/mL
pH at 2 hrs ([3]; pH 3.0 100 mM citrate buffer): (3.05)
Solubility 0.5 hrs ([3]; pH 4.5 50 mM acetate buffer): >2 mg/mL
Solubility 2 hrs ([3]; pH 4.5 50 mM acetate buffer): >2 mg/mL
pH at 2 hrs ([3]; pH 4.5 50 mM acetate buffer): (4.36)
Solubility 0.5 hrs ([3]; pH 6.8 50 mM phosphate buffer): >2 mg/mL
Solubility 2 hrs ([3]; pH 6.8 50 mM phosphate buffer): >2 mg/mL
pH at 2 hrs ([3]; pH 6.8 50 mM phosphate buffer): (6.49)
D. (%) Cycle 1 (Desorption) ([4]; 0% RH, 25° C.): 0.49%
D. (%) Cycle 2 (Desorption) ([4]; 0% RH, 25° C.): 0.09%
S. (%) Cycle 1 (Sorption) ([4]; 0% RH, 25° C.): 0.49%
S. (%) Cycle 2 (Sorption) ([4]; 0% RH, 25° C.): 0.09%
D. (%) Cycle 1 (Desorption) ([4]; 10% RH, 25° C.): 0.62%
D. (%) Cycle 2 (Desorption) ([4]; 10% RH, 25° C.): 0.15%
S. (%) Cycle 1 (Sorption) ([4]; 10% RH, 25° C.): 0.56%
S. (%) Cycle 2 (Sorption) ([4]; 10% RH, 25° C.): 0.18%
D. (%) Cycle 1 (Desorption) ([4]; 20% RH, 25° C.): 0.71%
D. (%) Cycle 2 (Desorption) ([4]; 20% RH, 25° C.): 0.35%
S. (%) Cycle 1 (Sorption) ([4]; 20% RH, 25° C.): 0.66%
S. (%) Cycle 2 (Sorption) ([4]; 20% RH, 25° C.): 0.27%
D. (%) Cycle 1 (Desorption) ([4]; 30% RH, 25° C.): 0.81%
D. (%) Cycle 2 (Desorption) ([4]; 30% RH, 25° C.): 0.47%
S. (%) Cycle 1 (Sorption) ([4]; 30% RH, 25° C.): 0.76%
S. (%) Cycle 2 (Sorption) ([4]; 30% RH, 25° C.): 0.37%
D. (%) Cycle 1 (Desorption) ([4]; 40% RH, 25° C.): 0.93%
D. (%) Cycle 2 (Desorption) ([4]; 40% RH, 25° C.): 0.56%
S. (%) Cycle 1 (Sorption) ([4]; 40% RH, 25° C.): 0.86%
S. (%) Cycle 2 (Sorption) ([4]; 40% RH, 25° C.): 0.47%
D. (%) Cycle 2 (Desorption) ([4]; 50% RH, 25° C.): 0.67%
S. (%) Cycle 1 (Sorption) ([4]; 50% RH, 25° C.): 0.71%
D. (%) Cycle 2 (Desorption) ([4]; 60% RH, 25° C.): 0.85%
S. (%) Cycle 1 (Sorption) ([4]; 60% RH, 25° C.): 0.85%
D. (%) Cycle 2 (Desorption) ([4]; 70% RH, 25° C.): 1.04%
S. (%) Cycle 1 (Sorption) ([4]; 70% RH, 25° C.): 1.02%
D. (%) Cycle 2 (Desorption) ([4]; 80% RH, 25° C.): 1.30%
S. (%) Cycle 1 (Sorption) ([4]; 80% RH, 25° C.): 1.27%
D. (%) Cycle 2 (Desorption) ([4]; 90% RH, 25° C.): 1.84%
S. (%) Cycle 1 (Sorption) ([4]; 90% RH, 25° C.): 1.78%
D. (%) Cycle 2 (Desorption) ([4]; 95% RH, 25° C.): 2.89%
S. (%) Cycle 1 (Sorption) ([4]; 95% RH, 25° C.): 2.89%
XRPD after DVS test ([4]; cycle 40-0-95-0-40% RH, 25° C.): No form change,
Water uptake ([4]; up to 95% RH, DVS 25° C.): about 2.9%
Polymorphic behavior under compression (XRPD) ([5]; compressed for 5 minutes at 10 MPa): no form change was observed
Form transformation and crystallinity after grinding (XRPD) ([5]; ground manually with mortar and pestle for 5 min): no form change was observed; crystallinity slightly decreased
Form transformation after granulation simulation (XRPD) ([5]; wetted with water or ethanol, ground 3 minutes, dried 10 min): neither in ethanol, nor in water form change was observed

Concentration in vaginal tissue ([6]; 3% dose (FIG. 116)): < 15 ng/mL
Tissue penetration ([6]; porcine vaginal tissue, FIG. 116, Compound II 0.1% gel, ABI-1968 1% and 3% formulations): substantially smaller degree
Tissue concentration ([6]; up to a 3% dose (Bar F and G in FIG. 116)): < 15 ng/mg
SMILES: CCCCCCCCCCCCCCCCCCOCCOP(=O)(O)COCCn1cnc2c(=O)[nH]c(N)nc21 [ABI-1968]
